Experimental data taken from patent US10822376B2, “Biologically active peptides” (Baxalta Incorporated, priority 2008, dated 2020).
Where a SMILES comes first, the peptide text is derived from it. Bridges are numbered along the chain shown (N, C = ends). Roman numbers before positions name the chains, in order. [ ]: non-standard residue; d: D form.

Assays:
FVIII inhibited plasma = experiment: Defined Dual-Pathway Thrombin Generation Assay (DDPTGA, reagent C high), FVIII inhibited plasma; format: biochemical, human; conditions: for Peak IIa FEIBA EU / Peak IIa FVIIa EU / Peak Time FEIBA EU / Peak Time FVIIa EU: FVIII inhibited plasma; for Activity in the Defined Dual-Pathway Thrombin Generation Assay: summary, FVIII inhibited or deficient plasma
Description: (§1) The intrinsic pathway of thrombin generation may be assayed in a thrombin generation assay by including FXIa and phospholipids. In such an assay, which is similar to an activated partial thromboplastin time (aPTT) test, thrombin generation is solely directed through the intrinsic pathway, and is FVIII dependent. A suitable assay is the Defined Intrinsic Thrombin Generation Assay described below. Alternatively, by employing low concentrations of TF and phospholipids instead of FXIa and phospholipids, thrombin is generated by both the extrinsic (tissue factor) and the intrinsic pathways. This form of the thrombin generation assay is the more physiologic one, as both thrombin generation pathways are involved; it is partially FVIII dependent. A suitable assay is the Defined Dual-Pathway Thrombin Generation Assay.
(§2) Preferably, Reagent C high is used.
(§3) Tissue factor dependency of peak thrombin generation and thrombin peak time was characterised in a composition containing a fixed concentration of phospholipid (namely 3.2 μM). Phospholipid dependency was characterised in a composition containing a fixed concentration of tissue factor (namely 7.2 μM). Peak time (time to peak thrombin generation) was dependent on the concentration of phospholipid or tissue factor. The final version of this assay is as described in the specific description, in which 10 μl reagent C high containing (32 μM phospholipid and 71.6 μM tissue factor) is used in a total volume of 100 μl.
(§4) Further studies were conducted using 3.2 μM phospholipid and 7.2 μM tissue factor in FVIII deficient or inhibited plasma, to characterise the effect on peak thrombin generation and thrombin peak time of various coagulation factor preparations. These studies provided a basis from which to compare the efficacy of the compounds in the assay. Briefly, rFVIII (Recombinate® FVIII from Baxter) was tested at 0, 5, 10, 20, 40 and 80 mU/ml in FVIII deficient plasma. FEIBA was tested at 0, 8, 16, 31, 63 and 125 mU/ml in FVIII inhibited plasma. FVIIa was tested at 0, 0.1, 0.4, 1.6, 6.3 and 25 nM in FVIII inhibited plasma. […] Peak thrombin increased and both the lag time and the thrombin peak time decrease.

FVIII deficient plasma = experiment: Defined Dual-Pathway Thrombin Generation Assay (DDPTGA, reagent C high), FVIII deficient plasma; format: biochemical, human; conditions: for Effect on both peak time and peak IIa of thrombin generation: DDPTGA, comment on Table 10; for Peak IIa FVIII EU / Peak Time FVIII EU: FVIII deficient plasma
Description: as §1, §2, §3, §4

[1] = test system: FVIII-inhibited human normal plasma; experiment: Defined Fibrin Deposition Assay (clotting time); format: biochemical
Method: Another suitable assay to determine procoagulant activity, and particularly FVIII equivalent activity or FVIII inhibitor bypassing activity, is the Defined Fibrin Deposition Assay as described below. […] This assay is particularly useful for determining coagulation FVIII activity because it is conducted in the presence of FVIII-depleted or inhibited plasma.
The Defined Fibrin Deposition Assay is performed as follows. FVIII activity of human citrated plasma (Baxter AG) is first inhibited by incubating (2 hours, 37° C.) 100 μl of human normal plasma with 25 μl heat inactivated anti-human FVIII plasma (300 BU/ml, 6 hours incubated at 56° C.) raised in goat. For each sample to be tested, 125 μl of this FVIII-inhibited human normal plasma is transferred to a pre-warmed cuvette and a 75 μl dilution of a test compound or FEIBA reference standard (Baxter AG) is added. The dilutions of test compound or FEIBA reference standard contain 50 mM imidazole, 100 mM NaCl and 10 mg/ml human serum albumin (Sigma) pH 7.4. As a trigger and for providing procoagulant surfaces 100 μl of a mix of human factor XIa (3.13 nM, Enzyme Research Laboratories) and phospholipid (PL) vesicles (Phosphatidylcholine/Phosphatidylserine 60%/40%, 30 μM; Avanti Polar Lipids) in 50 mM Imidazole, 100 mM NaCl, 10 mg/ml human serum albumin (Sigma) pH 7.4 is included. After incubating for three minutes at 37° C. the coagulation reaction is started by adding 100 μl of 25 mM CaCl2. Clot formation is monitored by a coagulometer (KC10A, Amelung, Germany). In brief, each cuvette rotates slowly above the magnetic detection device and contains a small magnetic metallic ball. Whilst the plasma components remain in solution, the ball sits at the bottom of the cuvette. Over time, a clot begins to form, such that the ball starts to rotate with the developing clot in the rotating cuvette. The “clotting time” is recorded and is defined as the time from addition of the CaCl2) to the time that the developing clot begins to rotate the metallic ball. A standard curve for FEIBA reference standard dilutions is calculated by linear regression of logarithmic FEIBA concentrations (x-axis) against the clotting time (y-axis). Based on the clotting time of each compound concentration FEIBA equivalent activities are calculated according to this standard curve.
Thus, where a concentration of 100 μM is given, the actual concentration in the final assay volume in 25 μM.
Various peptides were tested for the ability to stimulate fibrin deposition in the Defined Fibrin Deposition Assay as described in the specific description.

[2] = test system: human FVIII inhibited plasma; experiment: Defined Intrinsic Thrombin Generation Assay (DITGA, triggered by FXIa and phospholipids); format: biochemical; conditions: for Activity in the Defined Intrinsic Thrombin Generation Assay: summary
Description: as §1
The Defined Intrinsic Thrombin Generation Assay is performed as follows. FVIII activity of human plasma is inhibited by incubating (2 hours, 37° C.) 40 μl of human normal plasma with 10 μl heat inactivated anti-human FVIII plasma raised in goat (600 BU/ml, 6 hours incubated at 56° C.). […] Instead of FVIII-inhibited plasma, FVIII inhibitor patient plasma or several depleted plasmas can be used. The micro-plate is immediately put into a GENios Plus (Tecan) or Safire 2 (Tecan) fluorescence reader and the fluorescence signal (ex 340 nm/em 440 nm) is followed kinetically by reading the plate every 21 seconds.
For calculation of activity equivalent units experiments are performed with dilutions of Factor Eight Inhibitor Bypassing Agent (FEIBA, Baxter AG), Immunate (human FVIII, purified plasma derived) reference standard (Baxter AG) or Recombinate standard (human FVIII, purified recombinant, Baxter AG). A linear fit of the logarithm of FEIBA (FVIII) concentration plotted against thrombin generation time at peak thrombin results in a standard curve. With this curve FEIBA (FVIII) equivalent activity is calculated for a defined peptide concentration. […] Thus, where a concentration of 100 μM is given, the actual concentration in the final assay volume in 40 μM.
Compounds were screened using the “Defined intrinsic thrombin generation assay” in which thrombin generation was quantified in vitro in FVIII-inhibited human plasma in the presence of Factor XIa and phospholipid vesicles. Further compounds were screened in the above assay, and in the “Defined dual-pathway thrombin generation assay” using tissue factor and phospholipids instead of Factor XIa and phospholipids, as described in the specific description.
Various concentrations of each peptide were tested in the defined intrinsic thrombin generation assay using human FVIII inhibited plasma.

Molecule | Peak IIa FEIBA EU (FVIII inhibited plasma; peptide 100 μM) | Peak IIa FVIIa EU (FVIII inhibited plasma; peptide 100 μM) | Peak Time FEIBA EU (FVIII inhibited plasma; peptide 100 μM) | Peak Time FVIIa EU (FVIII inhibited plasma; peptide 100 μM) | Activity in the Defined Dual-Pathway Thrombin Generation Assay (FVIII inhibited plasma) | Effect on both peak time and peak IIa of thrombin generation (FVIII deficient plasma) | Peak IIa FVIII EU (FVIII deficient plasma; peptide 100 μM) | Peak Time FVIII EU (FVIII deficient plasma; peptide 100 μM) | Peak IIa FEIBA EU (FVIII inhibited plasma; peptide 50 μM) | Peak IIa FVIIa EU (FVIII inhibited plasma; peptide 50 μM) | Peak Time FEIBA EU (FVIII inhibited plasma; peptide 50 μM) | Peak Time FVIIa EU (FVIII inhibited plasma; peptide 50 μM) | Peak IIa FVIII EU (FVIII deficient plasma; peptide 50 μM) | Peak Time FVIII EU (FVIII deficient plasma; peptide 50 μM) | Thrombin peak time given as FEIBA equivalent activity ([2]; peptide 12.5 μM) | Thrombin peak time given as FEIBA equivalent activity ([2]; peptide 25 μM) | Thrombin peak time given as FEIBA equivalent activity ([2]; peptide 50 μM) | Thrombin peak time given as FEIBA equivalent activity ([2]; peptide 100 μM) | Activity in the Defined Intrinsic Thrombin Generation Assay [2] | other results
CC[C@@H](C)[C@@H](NC(=O)[C@@H](CSSC[C@@H](NC(C)=O)C(=O)N[C@@H](C(=O)N[C@H](CCSC)C(=O)N[C@H](Cc1ccccc1)C(=O)N[C@H](Cc1c[nH]c2ccccc12)C(=O)N[C@H](Cc1ccc(O)cc1)C(=O)N[C@H](CC(=O)O)C(=O)N[C@H](CCC(=O)O)C(=O)N[C@H](Cc1ccc(O)cc1)C(=O)N[C@H](CCC(=O)O)C(N)=O)[C@H](C)CC)NC(C)=O)C(=O)N[C@H](CCSC)C(=O)N[C@H](Cc1ccccc1)C(=O)N[C@H](Cc1c[nH]c2ccccc12)C(=O)N[C@H](Cc1ccc(O)cc1)C(=O)N[C@H](CC(=O)O)C(=O)N[C@H](CCC(=O)O)C(=O)N[C@H](Cc1ccc(O)cc1)C(=O)N[C@H](CCC(=O)O)C(N)=O [Peptide B04, Disulphide-Dimer(Ac-cimfwydeye-NH2)2] (I: Ac-[dC][dI][dM][dF][dW][dY][dD][dE][dY][dE]-NH2 / II: Ac-[dC][dI][dM][dF][dW][dY][dD][dE][dY][dE]-NH2; disulfide I:1-II:1) | 13.3 mU/ml | 0.7 nM | BLS (BLS = below lowest standard.) | BLS (BLS = below lowest standard.) | possess activity | positively affected | 5.0 mU/ml | 1.6 mU/ml |  |  |  |  |  |  |  |  |  |  |  | Peak IIa FEIBA EU (FVIII inhibited plasma; peptide 16 μM): BLS (BLS = below lowest standard.); Peak IIa FVIIa EU (FVIII inhibited plasma; peptide 16 μM): 0.1 nM; Peak Time FEIBA EU (FVIII inhibited plasma; peptide 16 μM): BLS (BLS = below lowest standard.); Peak Time FVIIa EU (FVIII inhibited plasma; peptide 16 μM): BLS (BLS = below lowest standard.); Peak IIa FEIBA EU (FVIII inhibited plasma; peptide 40 μM): 12.8 mU/ml; Peak IIa FVIIa EU (FVIII inhibited plasma; peptide 40 μM): 0.6 nM; Peak Time FEIBA EU (FVIII inhibited plasma; peptide 40 μM): BLS (BLS = below lowest standard.); Peak Time FVIIa EU (FVIII inhibited plasma; peptide 40 μM): BLS (BLS = below lowest standard.); Peak IIa FVIII EU (FVIII deficient plasma; peptide 16 μM): 4.4 mU/ml; Peak Time FVIII EU (FVIII deficient plasma; peptide 16 μM): 4.1 mU/ml; Peak IIa FVIII EU (FVIII deficient plasma; peptide 40 μM): 4.8 mU/ml; Peak Time FVIII EU (FVIII deficient plasma; peptide 40 μM): 7.3 mU/ml
PEG5000-ERMEFDVWDLYFEIVW-NH2 [Peptide A18] | BLS (BLS = below lowest standard.) | BLS (BLS = below lowest standard.) | BLS (BLS = below lowest standard.) | BLS (BLS = below lowest standard.) | possess activity |  | BLS (BLS = below lowest standard.) | 17.1 mU/ml | BLS (BLS = below lowest standard.) | BLS (BLS = below lowest standard.) | BLS (BLS = below lowest standard.) | BLS (BLS = below lowest standard.) | BLS (BLS = below lowest standard.) | BLS (BLS = below lowest standard.) |  |  |  |  |  | 
Ac-WSLYFEIVWE [Peptide A14] | BLS (BLS = below lowest standard.) | BLS (BLS = below lowest standard.) | BLS (BLS = below lowest standard.) | BLS (BLS = below lowest standard.) |  |  | BLS (BLS = below lowest standard.) | BLS (BLS = below lowest standard.) | BLS (BLS = below lowest standard.) | BLS (BLS = below lowest standard.) | BLS (BLS = below lowest standard.) | BLS (BLS = below lowest standard.) | BLS (BLS = below lowest standard.) | BLS (BLS = below lowest standard.) |  |  |  |  |  | 
CC[C@@H](C)[C@H]1NC(=O)[C@H](NC(C)=O)CSSC[C@H](C(=O)N[C@H](Cc2ccc(O)cc2)C(=O)N[C@H](CCC(=O)O)C(N)=O)NC(=O)[C@@H](CC(=O)O)NC(=O)[C@@H](Cc2ccc(O)cc2)NC(=O)[C@@H](Cc2c[nH]c3ccccc23)NC(=O)[C@@H](Cc2ccccc2)NC(=O)[C@@H](CCSC)NC1=O [Peptide B01, Ac-(cimfwydc)-ye-NH2] (Ac-[dC][dI][dM][dF][dW][dY][dD][dC][dY][dE]-NH2; disulfide 1-8) |  |  |  |  |  |  |  |  |  |  |  |  |  |  | 35 mU/ml | 62 mU/ml | 89 mU/ml | 103 mU/ml | possess activity | FEIBA EU (from clotting time) ([1]; compound 25 μM): 31 mU/ml; FEIBA EU (from clotting time) ([1]; compound 50 μM): 47 mU/ml; FEIBA EU (from clotting time) ([1]; compound 100 μM): 94 mU/ml; Activity in the Defined Fibrin Deposition Assay ([1]; summary): possess activity
Ac-WDLYFEIVW-ttds-K [Peptide A20] |  |  |  |  |  |  |  |  |  |  |  |  |  |  | 501 mU/ml | 597 mU/ml | 873 mU/ml | 1101 mU/ml | possess activity | Thrombin peak time given as FEIBA equivalent activity ([2]; peptide 6.25 μM): 391 mU/ml
Ac-WDLYFEISW-ttds-E [Peptide A15] | 13.6 mU/ml | 0.7 nM | BLS (BLS = below lowest standard.) | BLS (BLS = below lowest standard.) | possess activity | positively affected | 5.0 mU/ml | 12.7 mU/ml | BLS (BLS = below lowest standard.) | BLS (BLS = below lowest standard.) | BLS (BLS = below lowest standard.) | BLS (BLS = below lowest standard.) | 4.3 mU/ml | 14.4 mU/ml |  |  |  |  |  | 
